# Data from PubChem BioAssay (NCI).
#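 Where inhibition never reached the appropriate level, the endpoint shown equals the highest concentration tested. Otherwise, values were interpolated linearly from a five-concentration, 48-hour dose response in 96-well plates. The concentration for full growth arrest is given as TGI.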
# How the values were obtained:
# Test in all cases: growth of human tumour cells (NCI), 48 h
# [1] = system: 786-0 renal
# [2] = system: A498 renal
# [3] = system: A549 NSCLC
# [4] = system: ACHN renal
# [5] = system: BT-549 breast
# [6] = system: CAKI-1 renal
# [7] = system: CCRF-CEM leukemia
# [8] = system: COLO 205 colon
# [9] = system: DU-145 prostate
# [10] = system: EKVX NSCLC
# [11] = system: HCC-2998 colon
# [12] = system: HCT-116 colon
# [13] = system: HCT-15 colon
# [14] = system: HL-60(TB) leukemia
# [15] = system: HOP-62 NSCLC
# [16] = system: HOP-92 NSCLC
# [17] = system: HS 578T breast
# [18] = system: HT29 colon
# [19] = system: IGROV1 ovarian
# [20] = system: K-562 leukemia
# [21] = system: KM12 colon
# [22] = system: LOX IMVI melanoma
# [23] = system: M14 melanoma
# [24] = system: MALME-3M melanoma
# [25] = system: MCF7 breast
# [26] = system: MDA-MB-231 breast
# [27] = system: MDA-MB-435
# [28] = system: MDA-N
# [29] = system: MOLT-4 leukemia
# [30] = system: NCI-H226 lung
# [31] = system: NCI-H23 lung
# [32] = system: NCI-H460 lung
# [33] = system: NCI-H522 lung
# [34] = system: NCI/ADR-RES ovarian
# [35] = system: OVCAR-3 ovarian
# [36] = system: OVCAR-4 ovarian
# [37] = system: OVCAR-5 ovarian
# [38] = system: OVCAR-8 ovarian
# [39] = system: PC-3 prostate
# [40] = system: RPMI-8226 leukemia
# [41] = system: RXF 393 renal
# [42] = system: SF-268 CNS
# [43] = system: SF-295 CNS
# [44] = system: SF-539 CNS
# [45] = system: SK-MEL-2 melanoma
# [46] = system: SK-MEL-28 melanoma
# [47] = system: SK-MEL-5 melanoma
# [48] = system: SK-OV-3 ovarian
# [49] = system: SN12C renal
# [50] = system: SNB-19 CNS
# [51] = system: SNB-75 CNS
# [52] = system: SR leukemia
# [53] = system: SW-620 colon
# [54] = system: T-47D breast
# [55] = system: TK-10 renal
# [56] = system: U251 CNS
# [57] = system: UACC-257 melanoma
# [58] = system: UACC-62 melanoma
# [59] = system: UO-31 renal
smiles,measurement,setting,value
O=[N+]([O-])c1ccc2c(c1)C1=NN(c3ccccc3)C(c3ccccc3Br)C1CCC2 (stereo not drawn),TGI,[1],> 50 µM
same,TGI,[2],> 50 µM
same,TGI,[3],> 50 µM
same,TGI,[4],> 50 µM
same,TGI,[5],35 µM
same,TGI,[6],> 50 µM
same,TGI,[7],27.4 µM
same,TGI,[8],> 50 µM
same,TGI,[9],> 50 µM
same,TGI,[10],> 50 µM
same,TGI,[11],> 50 µM
same,TGI,[12],> 50 µM
same,TGI,[13],> 50 µM
same,TGI,[14],24.1 µM
same,TGI,[15],> 50 µM
same,TGI,[16],48.1 µM
same,TGI,[17],> 50 µM
same,TGI,[18],> 50 µM
same,TGI,[19],> 50 µM
same,TGI,[20],> 50 µM
same,TGI,[21],> 50 µM
same,TGI,[22],> 50 µM
same,TGI,[23],> 50 µM
same,TGI,[24],> 50 µM
same,TGI,[25],> 50 µM
same,TGI,[26],> 50 µM
same,TGI,[27],> 50 µM
same,TGI,[28],> 50 µM
same,TGI,[29],> 50 µM
same,TGI,[30],> 50 µM
same,TGI,[31],> 50 µM
same,TGI,[32],> 50 µM
same,TGI,[33],> 50 µM
same,TGI,[34],45.6 µM
same,TGI,[35],> 50 µM
same,TGI,[36],> 50 µM
same,TGI,[37],> 50 µM
same,TGI,[38],> 50 µM
same,TGI,[39],> 50 µM
same,TGI,[40],48.4 µM
same,TGI,[41],43 µM
same,TGI,[42],> 50 µM
same,TGI,[43],> 50 µM
same,TGI,[44],> 50 µM
same,TGI,[45],> 50 µM
same,TGI,[46],> 50 µM
same,TGI,[47],> 50 µM
same,TGI,[48],> 50 µM
same,TGI,[49],> 50 µM
same,TGI,[50],> 50 µM
same,TGI,[51],> 50 µM
same,TGI,[52],> 50 µM
same,TGI,[53],> 50 µM
same,TGI,[54],47.3 µM
same,TGI,[55],> 50 µM
same,TGI,[56],> 50 µM
same,TGI,[57],> 50 µM
same,TGI,[58],34.4 µM
same,TGI,[59],> 50 µM
CC(=O)c1ccc2c(c1)CC1(C2)Cc2ccccc2C1=O (stereo not drawn),TGI,[1],> 100 µM
same,TGI,[2],> 100 µM
same,TGI,[3],> 100 µM
same,TGI,[4],> 100 µM
same,TGI,[5],> 100 µM
same,TGI,[6],> 100 µM
same,TGI,[7],> 100 µM
same,TGI,[8],> 100 µM
same,TGI,[9],> 100 µM
same,TGI,[10],> 100 µM
same,TGI,[11],> 100 µM
same,TGI,[12],> 100 µM
same,TGI,[13],> 100 µM
same,TGI,[14],70 µM
same,TGI,[15],> 100 µM
same,TGI,[16],95.9 µM
same,TGI,[17],> 100 µM
same,TGI,[18],43.8 µM
same,TGI,[19],> 100 µM
same,TGI,[20],> 100 µM
same,TGI,[21],> 100 µM
same,TGI,[22],> 100 µM
same,TGI,[23],> 100 µM
same,TGI,[24],> 100 µM
same,TGI,[25],> 100 µM
same,TGI,[26],> 100 µM
same,TGI,[27],> 100 µM
same,TGI,[28],> 100 µM
same,TGI,[29],> 100 µM
same,TGI,[30],> 100 µM
same,TGI,[31],> 100 µM
same,TGI,[32],> 100 µM
same,TGI,[33],99.6 µM
same,TGI,[34],75.6 µM
same,TGI,[35],> 100 µM
same,TGI,[36],> 100 µM
same,TGI,[37],> 100 µM
same,TGI,[38],> 100 µM
same,TGI,[39],> 100 µM
same,TGI,[40],> 100 µM
same,TGI,[41],> 100 µM
same,TGI,[42],> 100 µM
same,TGI,[43],> 100 µM
same,TGI,[44],> 100 µM
same,TGI,[45],> 100 µM
same,TGI,[46],> 100 µM
same,TGI,[47],65.3 µM
same,TGI,[48],> 100 µM
same,TGI,[49],> 100 µM
same,TGI,[50],> 100 µM
same,TGI,[51],> 100 µM
same,TGI,[52],> 100 µM
same,TGI,[53],> 100 µM
same,TGI,[54],> 100 µM
same,TGI,[55],91.4 µM
same,TGI,[56],> 100 µM
same,TGI,[57],50.8 µM
same,TGI,[58],> 100 µM
same,TGI,[59],> 100 µM
COCCOCCOC1=CC(=O)c2c(O)ccc(O)c2C1=O,TGI,[1],3.2 µM
same,TGI,[2],5.08 µM
same,TGI,[3],3.38 µM
same,TGI,[4],2.99 µM
same,TGI,[5],3.2 µM
same,TGI,[6],2.04 µM
same,TGI,[7],4.48 µM
same,TGI,[8],0.883 µM
same,TGI,[9],2.82 µM
same,TGI,[10],7.54 µM
same,TGI,[11],3.51 µM
same,TGI,[12],1.05 µM
same,TGI,[14],2.52 µM
same,TGI,[15],3.44 µM
same,TGI,[16],3.71 µM
same,TGI,[17],6.05 µM
same,TGI,[18],1.79 µM
same,TGI,[19],3.21 µM
same,TGI,[20],3.77 µM
same,TGI,[21],3.3 µM
same,TGI,[22],3.11 µM
same,TGI,[23],2.14 µM
same,TGI,[24],0.399 µM
same,TGI,[25],2.88 µM
same,TGI,[26],2.83 µM
same,TGI,[27],0.108 µM
same,TGI,[28],0.289 µM
same,TGI,[29],5.56 µM
same,TGI,[30],3.88 µM
same,TGI,[31],3.23 µM
same,TGI,[32],3.47 µM
same,TGI,[33],2.93 µM
same,TGI,[34],4.85 µM
same,TGI,[35],2.75 µM
same,TGI,[36],3.13 µM
same,TGI,[39],6.73 µM
same,TGI,[40],4.26 µM
same,TGI,[41],3.68 µM
same,TGI,[42],6.93 µM
same,TGI,[43],3.23 µM
same,TGI,[44],3.9 µM
same,TGI,[45],3.47 µM
same,TGI,[46],2.92 µM
same,TGI,[47],0.329 µM
same,TGI,[49],3.8 µM
same,TGI,[50],3.28 µM
same,TGI,[51],3.28 µM
same,TGI,[52],5.03 µM
same,TGI,[53],1.72 µM
same,TGI,[54],3.48 µM
same,TGI,[55],4.51 µM
same,TGI,[57],1.43 µM
same,TGI,[58],3.34 µM
same,TGI,[59],3.02 µM
COC(=O)/C(C#N)=C(/NCCN)Nc1ccccc1,TGI,[1],> 100 µM
same,TGI,[2],> 100 µM
same,TGI,[3],> 100 µM
same,TGI,[4],> 100 µM
same,TGI,[5],> 100 µM
same,TGI,[6],> 100 µM
same,TGI,[8],> 100 µM
same,TGI,[9],> 100 µM
same,TGI,[10],> 100 µM
same,TGI,[11],> 100 µM
same,TGI,[12],> 100 µM
same,TGI,[13],> 100 µM
same,TGI,[14],> 100 µM
same,TGI,[15],> 100 µM
same,TGI,[16],> 100 µM
same,TGI,[17],> 100 µM
same,TGI,[18],> 100 µM
same,TGI,[19],> 100 µM
same,TGI,[20],> 100 µM
same,TGI,[22],> 100 µM
same,TGI,[23],> 100 µM
same,TGI,[24],> 100 µM
same,TGI,[25],> 100 µM
same,TGI,[26],> 100 µM
same,TGI,[27],> 100 µM
same,TGI,[28],> 100 µM
same,TGI,[29],> 100 µM
same,TGI,[30],> 100 µM
same,TGI,[31],> 100 µM
same,TGI,[32],> 100 µM
same,TGI,[33],> 100 µM
same,TGI,[34],> 100 µM
same,TGI,[35],> 100 µM
same,TGI,[36],> 100 µM
same,TGI,[37],> 100 µM
same,TGI,[38],> 100 µM
same,TGI,[39],> 100 µM
same,TGI,[40],> 100 µM
same,TGI,[41],> 100 µM
same,TGI,[42],> 100 µM
same,TGI,[43],> 100 µM
same,TGI,[44],> 100 µM
same,TGI,[45],> 100 µM
same,TGI,[46],> 100 µM
same,TGI,[47],> 100 µM
same,TGI,[48],> 100 µM
same,TGI,[49],> 100 µM
same,TGI,[50],> 100 µM
same,TGI,[51],> 100 µM
same,TGI,[52],> 100 µM
same,TGI,[53],> 100 µM
same,TGI,[54],> 100 µM
same,TGI,[55],> 100 µM
same,TGI,[56],> 100 µM
same,TGI,[57],> 100 µM
same,TGI,[59],> 100 µM
